Test results: PubChem BioAssay AID1159562 (GlaxoSmithKline (GSK), 2015)
Active and inactive are the calls of the source. No rule for the calls is given here.

These compounds were tested on Trypanosoma brucei growth inhibition, luminescence (assay: Trypanosoma brucei growth inhibition, luminescence (AID 1159562);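 also: parasites grew with compound for 24 h before the luminescence read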).

How did the IC50 turn out when `Cc1nc(N2CCC(C(=O)N3CCC(O)(c4cccnc4)CC3)CC2)nc2ccc(C(C)C)cc12` was run?
Its IC50 is 32000 nM.

How did the IC50 turn out when `CNc1nc(C)nc(N2CCc3cc(C(=O)NCc4ccc(-c5nccn5C)cc4Cl)ccc32)n1` was run?
Its IC50 is 20000 nM.

How did the IC50 turn out when `CN(CCOc1ccc(Cl)cc1)Cc1nc(N)nc(N(C)C)n1` was run?
The IC50 was 16000 nM.

`NC(=O)c1ccc(-c2cccc(OCCN3CCN(C4CCCCC4)CC3)c2)cc1` was tested. Which IC50 did it give?
Its IC50 is 16000 nM.

How did the IC50 turn out when `O=C(CCc1ccc(-c2ccccc2)o1)N1CCN(c2ccc(O)cc2)CC1` was run?
The IC50 was 40000 nM.

With `COc1ccc(C(C)N(C)c2ncc3c(N)nc(N)nc3n2)cc1F` (configuration not stated) as the compound, how does the IC50 read?
The IC50 was 5000 nM.

Which IC50 does the source give for `CS(=O)(=O)NC1CCC(Oc2cc3cnccc3cc2-c2ccsc2)CC1` (configuration not stated) here?
Its IC50 is > 40000 nM (inactive).

With `Cn1nc(-c2ccc(NC(=O)Cc3ccccc3Cl)cc2)c2c(N)ncnc21` as the compound, how does the IC50 read?
Its IC50 is 250 nM.

With `O=C1CN(C2CCCc3c(OCc4ccncc4)cccc32)C(=O)N1C1CCCCC1` (configuration not stated) as the compound, how does the IC50 read?
Its IC50 is > 40000 nM (inactive).

Which IC50 does the source give for `O=C1CCCCCC1(Cc1cnc[nH]1)c1ccc(Cl)cc1Cl` (configuration not stated) here?
Its IC50 is > 40000 nM (inactive).

How did the IC50 turn out when `O=C(Nc1ccc(C(F)(F)F)cc1)Nc1cccc([N+](=O)[O-])c1` was run?
Its IC50 is 2000 nM.

With `O=c1cc(CSc2ccc(Cl)cc2)nc(-c2ccccn2)[nH]1` as the compound, how does the IC50 read?
The IC50 was 1000 nM.

With `CCCCN(C(=O)c1ccc(NC(=O)C(C)C)cc1)c1ccccc1` as the compound, how does the IC50 read?
The IC50 was > 40000 nM (inactive).

With `CCOc1ccc(N(C)S(=O)(=O)c2ccc3[nH]cc(C(=O)NC4CCCC4)c(=O)c3c2)cc1` as the compound, how does the IC50 read?
The IC50 was 500 nM.

Which IC50 does the source give for `COc1ccc(-c2ccc3nnc(-c4ccc(O)c(OC)c4)n3c2)cn1` here?
Its IC50 is 2500 nM.

How did the IC50 turn out when `O=C(NCCc1csc(-c2ccc(F)cc2)n1)c1ccco1` was run?
Its IC50 is 500 nM.

With `O=C(Cn1cnc([N+](=O)[O-])n1)Nc1ccc(Cl)cc1C(=O)c1ccccc1` as the compound, how does the IC50 read?
The IC50 was 32000 nM.

With `Cn1c(CN2CCN(c3ncc(C(F)(F)F)cc3Cl)CC2)nc2ccncc21` as the compound, how does the IC50 read?
Its IC50 is > 40000 nM (inactive).

With `CCC(=O)Nc1ccc(C(=O)Nc2ccccc2-c2ccccc2)cc1` as the compound, how does the IC50 read?
The IC50 was 25000 nM.

For `O=C(Cn1cnc2c(-c3ccccc3)csc2c1=O)N1CCCCC1`, which IC50 is on record?
Its IC50 is 1000 nM.

With `CCN(C)Cc1ccc(N2CCC(NS(=O)(=O)c3ccc4c(c3)CCO4)CC2)nc1` as the compound, how does the IC50 read?
The IC50 was 40000 nM.

How did the IC50 turn out when `CN(CC1CCCO1)S(=O)(=O)c1ccc(C(=O)Nc2nc(-c3ccccn3)cs2)cc1` (configuration not stated) was run?
Its IC50 is 630 nM.

`Cc1nn(-c2nc(N)nc(-c3ccccn3)n2)c(C)c1Cc1ccccc1` was tested. Which IC50 did it give?
Its IC50 is 6300 nM.

With `O=C(CN(c1cccc(C(F)(F)F)c1)S(=O)(=O)c1ccc(Cl)cc1)NCc1ccc(F)c(F)c1` as the compound, how does the IC50 read?
The IC50 was 25000 nM.

How did the IC50 turn out when `O=[N+]([O-])c1ccc(C2=CC(c3ccccc3)=NCCN2)cc1` was run?
The IC50 was > 13000 nM (inactive).

`O=C(c1ccc(Cl)cc1)c1ccc(OC(=O)N2CCOCC2)cc1` was tested. Which IC50 did it give?
Its IC50 is > 40000 nM (inactive).

For `Cc1c([N+](=O)[O-])c(C(=O)Nc2sc3c(c2C#N)CCC(C)C3)nn1C` (configuration not stated), which IC50 is on record?
Its IC50 is > 40000 nM (inactive).

How did the IC50 turn out when `O=S(=O)(c1cccc(CSc2nnc(-c3ccc4c(c3)OCO4)o2)c1)N1CCOCC1` was run?
Its IC50 is > 40000 nM (inactive).

For `CS(=O)(=O)c1ccc(Nc2nccc(-c3cnn4ncccc34)n2)cc1`, which IC50 is on record?
Its IC50 is 200 nM.

`CC(C)c1cc(C(=O)N2CCCC(c3cc4ncccc4[nH]3)C2)on1` (configuration not stated) was tested. Which IC50 did it give?
The IC50 was > 40000 nM (inactive).

With `CC(C)(C)Nc1nc(Nc2ccc3c(c2)CS(=O)(=O)C3)nc2[nH]ccc12` as the compound, how does the IC50 read?
The IC50 was 5000 nM.

`O=[N+]([O-])c1ccc(-c2nnn(-c3cccnc3)n2)o1` was tested. Which IC50 did it give?
Its IC50 is 500 nM.

For `CCCCCNC(=O)c1c[nH]c2ccc(S(=O)(=O)N(C)c3ccc(OCC)cc3)cc2c1=O`, which IC50 is on record?
Its IC50 is 250 nM.

With `O=C(Nc1ccc(C(F)(F)F)cc1)NC1(C(=O)NCc2ccco2)CCCCC1` as the compound, how does the IC50 read?
The IC50 was 1000 nM.

`COc1cnc2ccc(=O)n(CCN3CCC(NC/C=C/c4cc(F)ccc4F)CC3)c2c1` was tested. Which IC50 did it give?
Its IC50 is 790 nM.

`CCC(=O)Nc1ccc(-c2nc3ccc(Cl)cc3[nH]2)cc1` was tested. Which IC50 did it give?
The IC50 was > 40000 nM (inactive).

How did the IC50 turn out when `Cc1cc(NC(=O)C2CC2)ccc1OC1CCN(Cc2ccco2)CC1` was run?
The IC50 was 250 nM.

For `O=C(NCCc1nc(-c2ccc(F)c(F)c2)n[nH]1)C1CCCCC1`, which IC50 is on record?
The IC50 was 1000 nM.

For `c1ccc(-c2nc(NC3CCCC3)c3ccccc3n2)nc1`, which IC50 is on record?
Its IC50 is 6300 nM.

How did the IC50 turn out when `CC(C)(C)CC(=O)NCCc1csc(-c2ccc(F)cc2)n1` was run?
The IC50 was 500 nM.

Which IC50 does the source give for `COCc1cc(Nc2ccc(Cl)cc2)nc(-c2ccccn2)n1` here?
Its IC50 is > 40000 nM (inactive).

With `COc1ccc2nccc(NC(=O)C3(OC)CCN(CC(O)c4ccc5c(c4)OCCO5)CC3)c2n1` (configuration not stated) as the compound, how does the IC50 read?
Its IC50 is 500 nM.

With `Cc1cccc(NS(=O)(=O)c2ccc3c(c2)C(=O)c2cc(S(=O)(=O)Nc4cccc(C)c4C)ccc2-3)c1C` as the compound, how does the IC50 read?
Its IC50 is 10000 nM.

`COc1ccc(S(=O)(=O)Nc2ccc(C(=O)Nc3nc(-c4ccccn4)cs3)cc2)cc1` was tested. Which IC50 did it give?
The IC50 was 630 nM.

`CS(=O)(=O)c1ccc(CC(=O)Nc2nc(-c3ccc(Cl)s3)cs2)cc1` was tested. Which IC50 did it give?
The IC50 was > 40000 nM (inactive).

For `CCn1c(-c2nonc2N)nc2c([C@@H](C)O)ncc(O[C@H](CN)c3ccccc3)c21`, which IC50 is on record?
The IC50 was 790 nM.

How did the IC50 turn out when `CCC(CC)C(=O)Nc1cccc(C(=O)Nc2nnc(C3CCCCC3)s2)c1` was run?
The IC50 was 630 nM.

`O=C(NC(CO)c1ccc(F)cc1)c1ccc(-c2c[nH]c3ncccc23)s1` (configuration not stated) was tested. Which IC50 did it give?
The IC50 was 790 nM.

How did the IC50 turn out when `COc1cccc(S(=O)(=O)Nc2ccc3c(c2)CC(N2CCC(NC(=O)C4CC4)CC2)C3)c1` (configuration not stated) was run?
The IC50 was 790 nM.

`COc1ccc(NS(=O)(=O)c2cc(-c3cc(C)[nH]n3)ccc2C)cc1OC` was tested. Which IC50 did it give?
The IC50 was 630 nM.

`CN(C)Cc1ccc(-c2ccc(S(=O)(=O)NCC3CCCO3)c(F)c2)cc1` (configuration not stated) was tested. Which IC50 did it give?
Its IC50 is 40000 nM.

For `CCCc1cc(N)nc(-c2cc(CCC)cc(N)n2)c1`, which IC50 is on record?
The IC50 was 7900 nM.
